Measurements taken from ChEMBL document CHEMBL5329209, “Designing photoaffinity tool compounds for the investigation of the DENV NS2B-NS3 protease allosteric binding pocket” (RSC Med Chem, 2023).
pIC50, pKi: −log10 of the molar value.

Columns and labels:
Genome polyprotein [1] = molecular target: T1, Genome polyprotein (dengue virus type 2, UniProt P29990); test: Inhibition of DENV2 NS2B-NS3 protease using Boc-Gly-Arg-Arg-AMC as substrate by fluorometric analysis
Genome polyprotein [2] = molecular target: T1, Genome polyprotein; test: Binding affinity to N terminal hexa histidine tagged DENV2 NS2B-NS3 protease assessed as apparent Ki by Dixon plot analysis; details: read-out: Ki(app)

T1 sequence (P29990 1346-1475 limits assumed): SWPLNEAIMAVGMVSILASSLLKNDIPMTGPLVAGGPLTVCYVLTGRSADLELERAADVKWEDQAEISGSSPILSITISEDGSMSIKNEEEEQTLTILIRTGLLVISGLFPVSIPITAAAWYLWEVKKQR
T1 sequence (P29990 1476-2093 limits assumed): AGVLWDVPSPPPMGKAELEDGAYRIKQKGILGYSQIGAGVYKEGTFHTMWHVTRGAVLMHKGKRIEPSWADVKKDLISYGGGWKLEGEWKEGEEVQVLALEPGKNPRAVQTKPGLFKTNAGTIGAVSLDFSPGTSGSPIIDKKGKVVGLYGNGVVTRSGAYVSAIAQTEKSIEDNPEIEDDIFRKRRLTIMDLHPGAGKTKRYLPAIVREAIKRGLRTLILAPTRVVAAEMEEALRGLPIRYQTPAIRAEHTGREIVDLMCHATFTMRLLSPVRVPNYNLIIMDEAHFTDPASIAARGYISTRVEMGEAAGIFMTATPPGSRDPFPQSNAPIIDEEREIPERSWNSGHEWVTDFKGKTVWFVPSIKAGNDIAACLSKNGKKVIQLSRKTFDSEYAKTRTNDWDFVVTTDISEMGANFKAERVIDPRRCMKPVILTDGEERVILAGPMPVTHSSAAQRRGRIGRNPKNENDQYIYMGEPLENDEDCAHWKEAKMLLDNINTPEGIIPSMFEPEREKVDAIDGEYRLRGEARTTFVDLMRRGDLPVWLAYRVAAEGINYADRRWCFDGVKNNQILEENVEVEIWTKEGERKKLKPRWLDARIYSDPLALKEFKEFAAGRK

SMILES	pIC50 (Genome polyprotein [1])	pKi (Genome polyprotein [2])
CC1OCCC1SSC[C@@H](NC(=O)c1ccc(C2(C(F)(F)F)N=N2)cc1)C(=O)Nc1nc2cc(O)c(O)cc2s1 (stereo partly specified)	4.70	
O=C(Nc1nc2cc(O)c(O)cc2s1)c1ccc(C2(C(F)(F)F)N=N2)cc1	5.00	5.20
O=C(CN(CC1CC2C=CC1C2)C(=O)c1ccc(C2(C(F)(F)F)N=N2)cc1)Nc1nc2cc(O)c(O)cc2s1 (stereo unspecified)	4.77	
O=C(N[C@H](CS)C(=O)Nc1nc2cc(O)c(O)cc2s1)c1ccc(C2(C(F)(F)F)N=N2)cc1	4.87	
CC(C)(C)SSC[C@@H](NC(=O)c1ccc(C2(C(F)(F)F)N=N2)cc1)C(=O)Nc1nc2cc(O)c(O)cc2s1	4.99	
